Publication PMC9161374 (Science Translational Medicine, 2022)
Values joined by “and” are separate entries in the source; they are usually repeats but may differ in a detail not shown here. Equal values may be shown once.

Key:
[1] = test system: SARS-CoV-2 (B.1); assay: Anti-SARS-CoV-2 activity in Vero E6 cells (viral yield by qRT-PCR); type: cell-based
[2] = test system: Vero E6 cells; assay: CCK-8 cell viability assay; type: cell-based, African green monkey; conditions: individual replicate values, Fig.S4
Procedure, shortened: (§1)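 Vero E6 cells, 20,000/well, exposed to compound at 0–200 μM (0, 0.01, 0.1, 1, 5, 10, 50, 75, 100, 200 μM) for 48 h; viability read by CCK-8 and expressed as percentage versus drug concentration, mean ± SD.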

[3] = CCK-8 cell viability assay; type: cell-based, African green monkey; conditions: African green monkey; Vero E6 cells, 48 h, CCK8
Procedure, shortened: as §1

[4] = test system: SARS-CoV-2 (Delta, B.1.617.2); assay: microbe, parasite or virus in culture; type: cell-based; conditions: for % Inhibition: delta
[5] = test system: SARS-CoV-2 replicon system (pBAC-SARS-CoV-2-Replicon-Luc); assay: microbe, parasite or virus in culture; type: cell-based; conditions: Severe acute respiratory syndrome coronavirus 2, HEK-293T, 60 h
[6] = test system: SARS-CoV-2 (Beta, B.1.351); assay: microbe, parasite or virus in culture; type: cell-based; conditions: for % Inhibition: beta
[7] = test system: SARS-CoV-2 (B.1) in Huh7 cells; assay: Anti-SARS-CoV-2 activity in Huh7 cells (viral yield by qRT-PCR); type: cell-based; conditions: B.1, MOI 0.05, 48 h

## CC(C)CC(=O)OC[C@H]1O[C@@](C#N)(c2ccc3c(N)ncnn23)[C@H](O)[C@@H]1O [ATV017]
[1]; 0.1 μM, replicates, sheet Fig.S3
  % Inhibition: 0%
[1]; 0.5 μM, replicates, sheet Fig.S3
  % Inhibition: 0%
[1]; 1 μM, replicates, sheet Fig.S3
  % Inhibition: 65.5016%
[1]; 2 μM, replicates, sheet Fig.S3
  % Inhibition: 89.9686%
[1]; 5 μM, replicates, sheet Fig.S3
  % Inhibition: 91.0527%
[1]; 10 μM, replicates, sheet Fig.S3
  % Inhibition: 91.8254%
[1]; B.1, 0.01 uM, Vero E6, replicates
  % Inhibition: 0%
[1]; B.1, 0.1 uM, Vero E6, replicates
  % Inhibition: 0%
[1]; B.1, 0.25 uM, Vero E6, replicates
  % Inhibition: 0%
[1]; B.1, 0.5 uM, Vero E6, replicates
  % Inhibition: 0%
[1]; B.1, 1 uM, Vero E6, replicates
  % Inhibition: 0%
[1]; B.1, 5 uM, Vero E6, replicates, 5 µM
  % Inhibition: 99.7611%
[1]; B.1, 10 uM, Vero E6, replicates, 10 µM
  % Inhibition: 99.9908%
[1]; B.1, 50 uM, Vero E6, replicates, 50 µM
  % Inhibition: 99.9887%
[1]; Severe acute respiratory syndrome coronavirus 2, Vero C1008, 0.1 μM, replicates, sheet Fig.S3
  inhibition at 0.1 µM: 0%
[1]; Severe acute respiratory syndrome coronavirus 2, Vero C1008, 0.5 μM, replicates, sheet Fig.S3
  inhibition at 0.5 µM: 0%
[1]; Severe acute respiratory syndrome coronavirus 2, Vero C1008, 1 μM, replicates, sheet Fig.S3
  inhibition at 1 µM: 62.2%
[1]; Severe acute respiratory syndrome coronavirus 2, Vero C1008, 2 μM, replicates, sheet Fig.S3
  inhibition at 2 µM: 89.2%
[1]; Severe acute respiratory syndrome coronavirus 2, Vero C1008, 5 μM, replicates, sheet Fig.S3
  inhibition at 5 µM: 92.3%
[1]; Severe acute respiratory syndrome coronavirus 2, Vero C1008, 10 μM, replicates, sheet Fig.S3
  inhibition at 10 µM: 93.6%
[1]; Severe acute respiratory syndrome coronavirus 2, Vero C1008, B.1, 0.01 uM, Vero E6, replicates
  inhibition at 0.01 µM: 0%
[1]; Severe acute respiratory syndrome coronavirus 2, Vero C1008, B.1, 0.1 uM, Vero E6, replicates
  inhibition at 0.1 µM: 0%
[1]; Severe acute respiratory syndrome coronavirus 2, Vero C1008, B.1, 0.25 uM, Vero E6, replicates
  inhibition at 0.25 µM: 0%
[1]; Severe acute respiratory syndrome coronavirus 2, Vero C1008, B.1, 0.5 uM, Vero E6, replicates
  inhibition at 0.5 µM: 0%
[1]; Severe acute respiratory syndrome coronavirus 2, Vero C1008, B.1, 1 uM, Vero E6, replicates
  inhibition at 1 µM: 0%
[1]; Severe acute respiratory syndrome coronavirus 2, Vero C1008, B.1, 5 uM, Vero E6, replicates
  inhibition at 5 µM: 99.6%
[1]; Severe acute respiratory syndrome coronavirus 2, Vero C1008, B.1, 10 uM, Vero E6, replicates
  inhibition at 10 µM: 99.9%
[1]; Severe acute respiratory syndrome coronavirus 2, Vero C1008, B.1, 50 uM, Vero E6, replicates
  inhibition at 50 µM: 99.9%
[1]; Severe acute respiratory syndrome coronavirus 2, Vero C1008, read-out: EC90 (Confidence 95%), Vero-E6, B.1
  EC90: 2480 nM
[1]; Severe acute respiratory syndrome coronavirus 2, Vero C1008, MOI 0.05, 48 h
  EC50: 2190 nM
[2]; 1 μM compound, 1 µM
  cell viability (% of control): 88.7524 % of control and 100.803 % of control and 120.919 % of control
[2]; 2 μM compound, 2 µM
  cell viability (% of control): 88.0108 % of control and 98.9031 % of control and 128.104 % of control
[2]; 5 μM compound, 5 µM
  cell viability (% of control): 90.8382 % of control and 109.656 % of control and 135.798 % of control
[2]; 10 μM compound, 10 µM
  cell viability (% of control): 94.2217 % of control and 115.404 % of control and 120.363 % of control
[2]; 20 μM compound, 20 µM
  cell viability (% of control): 80.7802 % of control and 92.136 % of control and 131.024 % of control
[2]; 50 μM compound, 50 µM
  cell viability (% of control): 71.9737 % of control and 85.3225 % of control and 97.3272 % of control
[3]
  CC50 at 48 h: > 50000 nM
[4]; Severe acute respiratory syndrome coronavirus 2, Vero C1008, 48 h, read-out: EC50 in Vero E6 cells, SARS-CoV-2 (Delta, B.1.617.2)
  EC50: 428 nM
[4]; Severe acute respiratory syndrome coronavirus 2, Vero C1008, delta, 0.01 uM, Vero E6, replicates
  inhibition at 0.01 µM: 0%
[4]; Severe acute respiratory syndrome coronavirus 2, Vero C1008, delta, 0.1 uM, Vero E6, replicates
  inhibition at 0.1 µM: 0%
[4]; Severe acute respiratory syndrome coronavirus 2, Vero C1008, delta, 0.25 uM, Vero E6, replicates
  inhibition at 0.25 µM: 0%
[4]; Severe acute respiratory syndrome coronavirus 2, Vero C1008, delta, 0.5 uM, Vero E6, replicates
  inhibition at 0.5 µM: 82.8%
[4]; Severe acute respiratory syndrome coronavirus 2, Vero C1008, delta, 1 uM, Vero E6, replicates
  inhibition at 1 µM: 90.3%
[4]; Severe acute respiratory syndrome coronavirus 2, Vero C1008, delta, 2 uM, Vero E6, replicates
  inhibition at 2 µM: 94.4%
[4]; Severe acute respiratory syndrome coronavirus 2, Vero C1008, delta, 5 uM, Vero E6, replicates
  inhibition at 5 µM: 93.9%
[4]; Severe acute respiratory syndrome coronavirus 2, Vero C1008, delta, 10 uM, Vero E6, replicates
  inhibition at 10 µM: 100%
[4]; Severe acute respiratory syndrome coronavirus 2, Vero C1008, read-out: EC90 (Confidence 95%), Vero-E6, Delta B.1.617.2
  EC90: 516 nM
[4]; 0.01 uM, Vero E6, replicates
  % Inhibition: 0%
[4]; 0.1 uM, Vero E6, replicates
  % Inhibition: 0%
[4]; 0.25 uM, Vero E6, replicates
  % Inhibition: 0%
[4]; 0.5 uM, Vero E6, replicates
  % Inhibition: 80.6558%
[4]; 1 uM, Vero E6, replicates
  % Inhibition: 88.2825%
[4]; 2 uM, Vero E6, replicates
  % Inhibition: 91.1914%
[4]; 5 uM, Vero E6, replicates
  % Inhibition: 90.8502%
[4]; 10 uM, Vero E6, replicates
  % Inhibition: 99.8554%
[4]; 50 uM, Vero E6, replicates
  % Inhibition: 99.5879%
[5]; read-out: EC50 (Confidence 95%), replicon
  EC50: 433 nM
[5]; read-out: EC90 (Confidence 95%), replicon
  EC90: 576 nM
[6]; Severe acute respiratory syndrome coronavirus 2, Vero C1008, 48 h, read-out: EC50 in Vero E6 cells, SARS-CoV-2 (Beta, B.1.351)
  EC50: 2850 nM
[6]; Severe acute respiratory syndrome coronavirus 2, Vero C1008, beta, 0.01 uM, Vero E6, replicates
  inhibition at 0.01 µM: 0%
[6]; Severe acute respiratory syndrome coronavirus 2, Vero C1008, beta, 0.1 uM, Vero E6, replicates
  inhibition at 0.1 µM: 0%
[6]; Severe acute respiratory syndrome coronavirus 2, Vero C1008, beta, 0.25 uM, Vero E6, replicates
  inhibition at 0.25 µM: 0%
[6]; Severe acute respiratory syndrome coronavirus 2, Vero C1008, beta, 0.5 uM, Vero E6, replicates
  inhibition at 0.5 µM: 0%
[6]; Severe acute respiratory syndrome coronavirus 2, Vero C1008, beta, 1 uM, Vero E6, replicates
  inhibition at 1 µM: 0%
[6]; Severe acute respiratory syndrome coronavirus 2, Vero C1008, beta, 5 uM, Vero E6, replicates
  inhibition at 5 µM: 99.7%
[6]; Severe acute respiratory syndrome coronavirus 2, Vero C1008, beta, 10 uM, Vero E6, replicates
  inhibition at 10 µM: 99.9%
[6]; Severe acute respiratory syndrome coronavirus 2, Vero C1008, read-out: EC90 (Confidence 95%), Vero-E6, Beta B.1.351
  EC90: 3400 nM
[6]; 0.01 uM, Vero E6, replicates
  % Inhibition: 0%
[6]; 0.1 uM, Vero E6, replicates
  % Inhibition: 0%
[6]; 0.25 uM, Vero E6, replicates
  % Inhibition: 0%
[6]; 0.5 uM, Vero E6, replicates
  % Inhibition: 0%
[6]; 1 uM, Vero E6, replicates
  % Inhibition: 0%
[6]; 2 uM, Vero E6, replicates
  % Inhibition: 6.056% and 0%
[6]; 5 uM, Vero E6, replicates
  % Inhibition: 99.5481%
[6]; 10 uM, Vero E6, replicates
  % Inhibition: 99.9499%
[6]; 50 uM, Vero E6, replicates
  % Inhibition: 99.982%
[7]; Severe acute respiratory syndrome coronavirus 2, Huh-7, read-out: EC50 (Confidence 95%) in Huh7 cells
  EC50: 905 nM
[7]; Severe acute respiratory syndrome coronavirus 2, Huh-7, read-out: EC90 (Confidence 95%) in Huh7 cells
  EC90: 1170 nM
